The results in this text go back to patent US20060084135A1, “Compositions for manipulating the lifespan and stress response of cells and organisms” (priority 2003, published 2006).

Where two headings read alike, the source gives them in different places.

In one data set the target is T1, recombinant human SIRT1 (Homo sapiens, UniProt Q96EB6).
T1 sequence (Q96EB6 1-747): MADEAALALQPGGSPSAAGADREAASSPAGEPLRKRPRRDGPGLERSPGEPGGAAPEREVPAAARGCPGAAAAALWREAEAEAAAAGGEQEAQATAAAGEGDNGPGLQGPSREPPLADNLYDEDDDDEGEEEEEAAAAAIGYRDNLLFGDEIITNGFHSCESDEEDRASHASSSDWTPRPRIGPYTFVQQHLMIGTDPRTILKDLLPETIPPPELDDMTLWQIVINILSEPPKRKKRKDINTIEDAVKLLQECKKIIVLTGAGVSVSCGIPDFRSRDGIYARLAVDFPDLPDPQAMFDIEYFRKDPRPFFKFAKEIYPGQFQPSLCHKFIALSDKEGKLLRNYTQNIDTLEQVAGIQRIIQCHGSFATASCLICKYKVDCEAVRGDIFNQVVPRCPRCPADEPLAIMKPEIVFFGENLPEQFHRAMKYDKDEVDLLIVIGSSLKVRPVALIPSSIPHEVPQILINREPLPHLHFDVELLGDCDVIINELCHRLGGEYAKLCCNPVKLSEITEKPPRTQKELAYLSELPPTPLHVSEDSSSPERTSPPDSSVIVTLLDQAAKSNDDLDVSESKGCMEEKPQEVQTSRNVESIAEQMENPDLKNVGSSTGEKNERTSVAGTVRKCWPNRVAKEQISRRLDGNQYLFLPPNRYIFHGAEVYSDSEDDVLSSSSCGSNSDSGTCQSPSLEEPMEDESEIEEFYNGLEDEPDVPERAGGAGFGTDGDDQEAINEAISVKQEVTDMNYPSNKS
Nature of the data set: SIRT1 fluorescent deacetylation assay (p53-382 acetylated peptide substrate). It counts as biochemical.

The next data set relates to S. cerevisiae. Kind of data set: Yeast replicative lifespan. It counts as cell-based. To be noted: 10 μM; for % change in yeast replicative lifespan relative to untreated organisms: 2% glucose YPD, untreated = 100%. On the procedure: Average lifespan was determined for wild type untreated (□), quercetin (◯) and piceatannol (●).
A short description of data set [1]: Stability in solution (decay of SIRT1 fold-stimulation of aged stock). It counts as physicochemical. Conditions: ethanol stock solution; ethanol stock 2.5 mM, room temperature, glass vials, nitrogen; assayed at 50 μM; read-out: Stability in Solution t1/2 (converted). The text has this:
The fold-stimulation (ratio to control) obtained with a compound diluted from an aged stock solution was compared to an identical dilution from a stock solution freshly prepared from the solid compound. “t1/2” is defined as the time required for the SIRT1 fold-stimulation of the compound from the aged solution to decay to one-half of that obtained from a freshly prepared solution. […] Stocks were aged by storage at room […] temperature, in glass vials, under a nitrogen atmosphere.

The test system of another data set is C. elegans (strain N2). Nature of the data set: C. elegans lifespan. Conditions: N2 worms, untreated = 100%. It counts as in vivo. On the procedure: Thus, the presence of resveratrol in the growth media of C. elegans extends their lifespan.
The effect of some of these compounds on lifespan was determined in yeast, C. elegans and D. melanogaster, as described above.

In the next data set the test system is HeLa S3 cells. Nature of the data set: Cellular deacetylase assay with Fluor de Lys substrate. It counts as cell-based, human. Conditions: 1 μM TSA. On the procedure:
FdL (200 μM) is added to growth media and cells are incubated for 1-3 hours to allow FdL to enter the cells and the lysine-deacetylated product (deAc-FdL) to accumulate intracellularly. Cells are lysed with detergent in the presence of 1 μM TSA and 1 mM nicotinamide. Addition of the non-cell-permeable Developer (BIOMOL) releases a fluorophor, specifically from deAc-FdL. […] Cells were grown adherently in DMEM/10% FCS and treated for 1 hour with 200 μM FdL, 1 μM TSA and either vehicle (0.5% final DMSO, Control) or 500 μM of the indicated compound. Intracellular accumulation of deAc-FdL was then determined as described briefly in FIG. 4a. […] Lysates were prepared and analyzed by Western blot as in FIG. 4c. […] Lysates were prepared and analyzed as above.
FIG. 6a through 6c show intracellular deacetylation activity measured with a cell-permeable, fluorogenic HDAC and sirtuin substrate. […] Intracellular and medium levels of deacetylated substrate (deAc-FdL) were determined according to the manufacturer's instructions (HDAC assay kit, BIOMOL). […]
Themed compound libraries (BIOMOL) were used for primary and secondary screening. […] HeLa cells were grown and the cellular deacetylation assays were performed and read, as above, but in full-volume 96-well microplates (Corning Costar 3595). […]

On to `Oc1cc(O)cc(/C=C/c2ccc(F)cc2)c1` [BML-212, 3,5-Dihydroxy-4′-fluoro-trans-stilbene], for which the “Ratio to Control Rate Mean ± SE” value at recombinant human SIRT1 (Table 9, resveratrol analogs, 100 μM, 25 μM NAD+, 25 μM p53-382 acetylated peptide) was found to be 8.20 ± 0.69. The “% change in yeast replicative lifespan relative to untreated organisms” value in the data set with S. cerevisiae is 98%. Moreover, the half-life at 50 µM in data set [1] was 2.75 days.
As to `CC(=O)Oc1ccc(/C=C/c2cc(O)cc(O)c2)cc1` [BML-221, 3,5-Dihydroxy-4′-acetoxy-trans-stilbene], the “Ratio to Control Rate Mean ± SE” value at recombinant human SIRT1 (Table 11, resveratrol analogs, 100 μM, 25 μM NAD+, 25 μM p53-382 acetylated peptide) was found to be 3.05 ± 0.54. Also, in the data set on S. cerevisiae, the “% change in yeast replicative lifespan relative to untreated organisms” value was found to be 165%. Moreover, in the data set with C. elegans (strain N2) (100/500 μM, E. coli as food), the “% change in C. elegans lifespan relative to untreated organisms” value is on record as >100% (ongoing). For the same molecule, the half-life in data set [1] was 21 days.
Take `COc1ccc(/C=C/c2cc(O)cc(O)c2)cc1` [BML-233, 3,5-Dihydroxy-4′-methoxy-trans-stilbene]: the “Ratio to Control Rate Mean ± SE” value at recombinant human SIRT1 was determined as 5.48 ± 0.33. Moreover, the “% change in C. elegans lifespan relative to untreated organisms” value is given as 70% (10) with C. elegans (strain N2) ((10) printed in the cell) and 50% (500) with C. elegans (strain N2) ((500) printed in the cell).
For the molecule `O=C(/C=C/c1ccc(O)c(O)c1)c1ccc(O)cc1O` [Butein, 3,4,2′,4′-Tetrahydroxychalcone], the “Ratio to Control Rate Mean ± SE” value at recombinant human SIRT1 (Supplementary Table 1, stilbenes and chalcones, 100 μM, 25 μM NAD+, 25 μM p53-382 acetylated peptide) is reported as 8.53 ± 0.89. The “Ratio to Control Rate Mean ± SE” value on recombinant human SIRT1 (Table 1, 100 μM compound, 25 μM NAD+, 25 μM p53-382 acetylated peptide) worked out at 8.53 ± 0.89. Moreover, in the data set on S. cerevisiae (wild type), the “Effect on maximum lifespan” value is “significantly increased” and the “Increase of average lifespan” value is given as 31%. Further, in the data set with HeLa S3 cells (500 μM compound, 200 μM FdL, 1 hour), the “TSA-insensitive cellular deacetylation signal” value was “no effect”.
In the case of `CC(/C=C/C(=O)NO)=C\[C@@H](C)C(=O)c1ccc(N(C)C)cc1` [trichostatin A, reference compound], in the data set on HeLa S3 cells (HeLa cells growing adherently), the “Signal insensitive to trichostatin A” value was 5-10%.
